Design in all cases: species or system C57BL/6 mice
Experiment [1] has as its system IL-1β. To be noted: mouse, in vivo, po.
Experiment [2] deals with IFN-γ. To be noted: mouse, in vivo.
In experiment [3] the test system is H7N9 avian influenza virus. Particulars: mouse, in vivo, po.
The test system of experiment [4] is H7N9 avian influenza virus. To be noted: mouse, in vivo.
The subject of experiment [5] is H7N9 avian influenza virus. To be noted: mouse, in vivo. This is another data set of the same source.

Experimental findings from patent US11717503B2 (priority 2020, dated 2023) are described below.

Values joined by “and” are separate entries in the source; they are usually repeats but may differ in a detail not shown here. Equal values may be shown once.

`CC(C)[C@H](N)C(=O)O` [Valine, valine]: in experiment [1], the “IL-1β content in lung homogenate” value is 691.546 ± 125.531 pg/mL and 512.836 ± 104.971 pg/mL. The “IFN-γ level vs control group (in words)” value in experiment [2] is given as “significantly higher”. Besides, the “IFN-γ content in lung homogenate” value in experiment [2] (po) is 121.927 ± 10.241 pg/mL and 108.583 ± 10.700 pg/mL. For the same compound, in experiment [3], the Mortality is on record as 60%, the “Number of survivals 15 days post infection” value stood at 4 and the Survival rate turned out to be 40%. Further, in experiment [4], the “Effect on weight loss caused by H7N9 infection (in words)” value is “alleviated the weight loss”. Besides, the “Effect on proliferation of influenza virus in the lungs (in words)” value in experiment [5] is on record as “significantly reduce the proliferation”. The “Virus content in the lungs (virus titer)” value in experiment [5] (po) was found to be 4.168 ± 0.614 log10EID50/ml.
As to `NCCCC[C@H](N)C(=O)O` [Lysine, lysine], in experiment [3], the Mortality was determined as 90%, the “Number of survivals 15 days post infection” value was found to be 1 and the Survival rate is listed as 10%. Besides, in experiment [4], the “Effect on weight loss caused by H7N9 infection (in words)” value was “alleviated the weight loss”.
The matching figures for `CC[C@H](C)[C@H](N)C(=O)O` [Isoleucine, isoleucine]: 100%, 0, 0% and “did not improve the weight loss”.
